From the RepoRT retention time repository (doi:10.1021/acs.analchem.2c02893)

Test: RP, Thermo Scientific Acclaim RSLC 120 C18, 100 × 2.1 mm, 2.2 µm, 30 °C, 0.2 mL/min, estimated dead time 1.1 min; A: 90% water + 10% methanol + 0.01% formic acid + 5 mM ammonium formate, pH 3.61; B: methanol + 0.01% formic acid + 5 mM ammonium formate, pH 3.61; gradient (min/%B) 0/1 1/1 2/39 13/99.9 15/99.9 15.1/1 20.1/1
Details: stereoisomer not certain

| Structure (SMILES) | LC retention time [min] |
| --- | --- |
| COC(=O)COc1cc(Cl)c(Cl)cc1Cl [2.4.5-T-methylester] | 10.8 |
| Cc1nccn1CC1CCc2c(c3ccccc3n2C)C1=O (stereo not drawn) [Ondansetron] | 4.98 |
| CNC(=N[N+](=O)[O-])NCc1cnc(Cl)s1 [Clothiandin] | 4.9 |
| CCCCn1cc(C(=O)c2cccc3ccccc23)c2cccc(O)c21 [JWH-073-M-7-OH-Ind] | 11.2 |
| O=C(O)c1nc(Cl)ccc1Cl [Clopyralid] | 3.06 |
| Cc1ccnc(NS(=O)(=O)c2ccc(N)cc2)n1 [Sulfamerazine] | 3.95 |
| COc1cc(CC(C)N)c(OC)cc1C (stereo not drawn) [DOM (2.5-Dimethoxy-4-methylamphetamine)] | 5.83 |
| N#Cc1nn(-c2c(Cl)cc(C(F)(F)F)cc2Cl)c(N)c1SC(F)(F)F [Fipronil-sulfide] | 10.8 |
| CC(CN(C)C)C(C)(O)Cc1ccc(Cl)cc1 (stereo not drawn) [Clobutinol] | 6.31 |
| O=C(O)COc1nc(Cl)c(Cl)cc1Cl [Triclopyr] | 7.85 |
| C=CCOC(=O)C(C)(C)OC(=O)c1cc(-n2c(=O)cc(C(F)(F)F)n(C)c2=O)ccc1Cl [Butafenacil] | 9.89 |
| CCCOc1nn(C(=O)NS(=O)(=O)c2ccccc2C(=O)OC)c(=O)n1C [Propoxycarbazone] | 5.73 |
| O=C(NCc1ccccc1)c1cn(CCCCCF)c2ccccc12 [SDB-006-5F] | 10 |
| CCN(CCCCOC(=O)c1ccc(OC)c(OC)c1)C(C)Cc1ccc(OC)cc1 (stereo not drawn) [Mebeverine] | 6.79 |
| CC1=C(C(=O)O)N2C(=O)C(NC(=O)C(N)c3ccc(O)cc3)C2SC1 (stereo not drawn) [Cefadroxil] | 2.84 |
| CCC(CO)NCCNC(CC)CO (stereo not drawn) [Ethambutol] | 1.93 |
| CCOC(=O)COC(=O)c1cc(Oc2ccc(C(F)(F)F)cc2Cl)ccc1[N+](=O)[O-] [Fluoroglycofen-ethyl] | 11.7 |
| c1ccc(C(c2ccccc2)C2CCCCN2)cc1 (stereo not drawn) [Desoxypipradol] | 6.3 |
| CCC1OC(=O)C(C)C(OC2CC(C)(OC)C(O)C(C)O2)C(C)C(OC2OC(C)CC(N(C)C)C2O)C(C)(O)CC(C)CN(C)C(C)C(O)C1(C)O (stereo not drawn) [Azithromycin] | 5.98 |
| CCOP(=S)(OCC)SCCS(=O)CC (stereo not drawn) [Disulfoton-sulfoxide] | 7.86 |
| CCOP(=S)(OCC)Oc1cc(-c2ccccc2)on1 [Isoxathion] | 11.3 |

| Structure (SMILES) | LC retention time [min] |
| --- | --- |
| NC(N)=NN=Cc1c(Cl)cccc1Cl [Guanabenz] | 5.61 |
| CN(C)S(=O)(=O)N(SC(F)(Cl)Cl)c1ccccc1 [Dichlofluanid] | 10 |
| CC(N)Cc1c2ccoc2c(Br)c2ccoc12 (stereo not drawn) [Bromodragonfly] | 7.41 |
| COC(=O)N(OC)c1ccccc1COc1ccn(-c2ccc(Cl)cc2)n1 [Pyraclostrobin] | 11.2 |
| CN(C)C(=O)NC1CCCCCCC1 [Cycluron] | 8.47 |
| CCOC(=O)C(CCc1ccccc1)NC(C)C(=O)N1C(C(=O)O)CC2CCCCC21 (stereo not drawn) [Trandolapril] | 9.55 |
| O=C1CN=C(c2ccccc2F)c2cc([N+](=O)[O-])ccc2N1 [Flunitrazepam-N-Desmethyl (Norflunitrazepam)] | 7.35 |
| CCCCn1cc(C(=O)c2cccc3ccccc23)c2c(O)cccc21 [JWH-073-M-4-OH-Ind] | 12 |
| CCCCCCCCSC(=O)Oc1cc(Cl)nnc1-c1ccccc1 [Pyridate] | 13.8 |
| Nc1c([N+](=O)[O-])ccc(Oc2ccccc2)c1Cl [Aclonifen] | 10.9 |
| CC(C)(C)NCC(O)COc1cccc2c1SCCC2 (stereo not drawn) [Tertatolol] | 6.76 |
| CCCc1nc(C)c2c(=O)[nH]c(-c3cc(C(=O)CN4CCN(CC)CC4)ccc3OCC)nn12 [Vardenafil-Acetyl] | 7.16 |
| COC(=O)C1=C(C#N)NC(C)=C(C(=O)OC(C)C)C1c1cccc([N+](=O)[O-])c1 (stereo not drawn) [Nilvadipine] | 10.3 |
| CCN1CCCC1CNC(=O)c1cc(S(N)(=O)=O)ccc1OC (stereo not drawn) [Sulpiride] | 2.94 |
| CCCc1nn(C)c2c(=S)nc(-c3cc(C(=S)N4CCN(C)CC4)ccc3OCC)[nH]c12 [carbodenafil-Dithio-desmethyl] | 11.5 |
| CCNc1nc(NCC)[nH]c(=O)n1 [Simazine-2-hydroxy] | 4.21 |
| COCCCNc1nc(NC(C)C)nc(SC)n1 [Methoprotryne] | 9.14 |
| CC(C)OC(=O)C(O)(c1ccc(Br)cc1)c1ccc(Br)cc1 [Bromopropylate] | 12.5 |
| CCCCOC(=O)c1ccc(O)cc1 [Butylparaben] | 9.46 |
| CCOC(=O)C1CC(=O)C(=C(O)C2CC2)C(=O)C1 (stereo not drawn) [Trinexapac-ethyl] | 8.45 |
| CN1CCOC(c2ccccc2)c2ccccc2C1 (stereo not drawn) [Nefopam] | 5.67 |

| Structure (SMILES) | LC retention time [min] |
| --- | --- |
| O=C1N(CCN2CCCCC2)C(=O)C(c2ccccc2)(N2CCCCC2)C(=O)N1CCN1CCCCC1 [Barverin] | 7.64 |
| CCN(CC)CCN1C(=O)CN=C(c2ccccc2F)c2cc(Cl)ccc21 [Flurazepam] | 6.61 |
| CCCCOC(=O)C(C)Oc1ccc(Oc2ccc(C(F)(F)F)cn2)cc1 (stereo not drawn) [Fluazifop-p-butyl] | 12 |
| COP(=S)(NC(C)C)Oc1ccccc1C(=O)OC(C)C (stereo not drawn) [Isofenphos-methyl] | 11.7 |
| Nc1nc2c(ncn2COCCO)c(=O)[nH]1 [Aciclovir] | 2.34 |
| CCCN(CCC)C(=O)SCC [EPTC] | 10.7 |
| CNCCC=C1c2ccccc2CCc2ccccc21 [Triptyline-Nor] | 8.51 |
| CCNc1nc(Cl)nc(NC(C)(C)C)n1 [Terbuthylazine] | 9.36 |
| COc1ccc(C(O)(c2cncnc2)C2CC2)cc1 (stereo not drawn) [Ancymidol] | 7.15 |
| O=C(C1CCCCC1)N1CC(=O)N2CCc3ccccc3C2C1 (stereo not drawn) [Praziquantel] | 9.32 |
| Cc1cc(C)nc(NS(=O)(=O)c2ccc(N)cc2)n1 [Sulfadimidine (Sulfamethazine)] | 4.31 |
| COc1ccc(C(=O)c2cn(CCCCCO)c3ccccc23)cc1 [RCS-4-M-5-OH-Pentyl] | 9.18 |
| COC(=O)C(NC(=O)c1nn(CCCCCF)c2ccccc12)C(C)(C)C (stereo not drawn) [ADB-5F] | 11 |
| c1cncc(C2CCCN2)c1 (stereo not drawn) [Nicotine-Nor] | 2.44 |
| CCCc1nn(C)c2c(=O)[nH]c(-c3cc(S(=O)(=O)N4CCCCC4)ccc3OCC)nc12 [Sildenafil Norneo] | 10.9 |
| CCCc1cc(=O)[nH]c(=S)[nH]1 [Propylthiouracil] | 4.51 |
| COc1ccc2[nH]cc(CC(C)N)c2c1 (stereo not drawn) [MeO-AMT (5-)] | 4.36 |
| CC(C(=O)O)c1ccc(CC(C)(C)O)cc1 (stereo not drawn) [Ibuprofen- 2-Hydroxy] | 7.08 |
| CN(C)C(CSS(=O)(=O)c1ccccc1)CSS(=O)(=O)c1ccccc1 [Bensultap] | 9.6 |
| CN(C)c1nc(N(C)C)nc(N(C)C)n1 [Altretamine] | 10.1 |
| Cc1ccccc1CN1CCN(CCOC(c2ccccc2)c2ccccc2Cl)CC1 (stereo not drawn) [Chlorbenzoxamine] | 10.8 |
